Laboratory results as given in US20230270817A1, “VIMENTIN INHIBITORS” (Filamon Pty Ltd, priority 2020, published 2023).
Entries after “also recorded” stand apart in the source; their conditions may differ. Non-standard residues stand in square brackets, D forms with d. 2Nal = N[C@@H](Cc1ccc2ccccc2c1)C(=O)O

Assays:
[1] = molecular target: T1, hGIIA binding to full length vimentin (Homo sapiens, UniProt P08670); assay: Colorimetric enzyme immunoassay (EIA) of inhibitor effect on the hGIIA-vimentin interaction, full length vimentin; details: immobilised full length vimentin, hGIIA 250 ng/mL, inhibitors 5-100 μM, FIG. 2B top panel
T1 construct: His6 tag (HHHHHH) from pET15b (N); thrombin cleavage site (LVPRGS) (N); made in house; host or cells: vimentin: Rosetta 2 E. coli (pET15b)
T1 sequence (P08670 whole entry): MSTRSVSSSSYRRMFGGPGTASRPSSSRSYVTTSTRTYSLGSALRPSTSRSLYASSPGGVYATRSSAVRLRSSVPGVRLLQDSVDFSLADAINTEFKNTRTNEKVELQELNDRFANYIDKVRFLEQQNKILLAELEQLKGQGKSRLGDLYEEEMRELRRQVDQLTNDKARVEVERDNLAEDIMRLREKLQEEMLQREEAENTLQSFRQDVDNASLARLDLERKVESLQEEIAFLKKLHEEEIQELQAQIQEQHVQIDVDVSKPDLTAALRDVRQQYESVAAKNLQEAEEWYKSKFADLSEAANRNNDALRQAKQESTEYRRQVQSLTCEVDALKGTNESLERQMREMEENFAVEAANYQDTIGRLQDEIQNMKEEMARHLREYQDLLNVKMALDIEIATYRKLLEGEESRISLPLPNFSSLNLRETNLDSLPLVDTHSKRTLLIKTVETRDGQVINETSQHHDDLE
Description: (§1) Purified vimentin protein solutions (full length, coil 1 or coil 2 fragments) were diluted to 10-20 μg/mL concentration in PBS and seeded to a 96-well microplate with a 100 μL/well volume. After an overnight incubation at 4° C., the plate was emptied. Each well was then blocked with 200 μL of 1% BSA in PBS. The blocked plate was incubated for at least an overnight period at 4° C. and used within 1 week.

[2] = tested on: LNCaP prostate cancer cells; assay: Murine prostate cancer xenograft model; assay type: in vivo, male Balb/c nu/nu mice; details: c2 0.1 mg/kg in saline thrice weekly, eight-week period, compared to vehicle
Description: Animals (male Balb/c nu/nu mice, aged six weeks, n=15 per group) were injected subcutaneously in the right rear flank with 1×10^6 LNCaP prostate cancer cells. Tumour size was monitored with calipers measuring tumour width and length and tumour volume calculated as described (Sved et al., Cancer Res, 2004. 64(19): p. 6934-40). When tumours were palpable and measured >5×5 mm, animals were randomised and entered into the study. […] Tumour volume data are mean±SE.

[3] = molecular target: T2, vimentin coil 1 fragment (residues 96 to 253), recombinant, His-tagged (human, UniProt P08670 96-253); assay: EIA, plate-bound vimentin coil 1, detection with 4A1-AP
T2 construct: Removal of the tag is not reported; also called coil 1 segment
T2 sequence (P08670 other isoform, or with tags, fused parts or gaps): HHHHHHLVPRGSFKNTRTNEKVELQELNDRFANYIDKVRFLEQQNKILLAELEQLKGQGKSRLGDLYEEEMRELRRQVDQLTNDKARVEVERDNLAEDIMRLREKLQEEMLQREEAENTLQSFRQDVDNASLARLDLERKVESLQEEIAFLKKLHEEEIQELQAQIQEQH
Description: as §1

## CCc1c(CC(N)=O)c2cc(OCCCP(=O)(O)O)ccc2n1Cc1ccccc1 [LY311727, [3-[[3-(2-amino-2-oxoethyl)-2-ethyl-1-(phenylmethyl)-1H-indol-5-yl]oxy]propyl]-phosphonic acid]
[1]
  inhibition of hGIIA binding to full length vimentin: c2 exhibited greater inhibition of hGIIA binding to full length vimentin than LY311727

## cyclo-((2-Nal)-Leu-Ser-(2-Nal)-Arg) (cyclo([2Nal]LS[2Nal]R); SMILES CC(C)C[C@@H]1NC(=O)[C@H](Cc2ccc3ccccc3c2)NC(=O)[C@H](CCCNC(=N)N)NC(=O)[C@H](Cc2ccc3ccccc3c2)NC(=O)[C@H](CO)NC1=O)
[2]
  growth in tumour volume: significantly reduced the growth in tumour volume; also recorded: potently slows the growth of prostate cancer

B1: human group IIA secreted phospholipase A2 (hGIIA), recombinant, purified from conditioned media of CHO cell line 2B1 (enzyme)
chain: NLVNFHRMIKLTTGKEAALSYGFYGCHCGVGGRGSPKDATDRCCVTHDCCYKRLEKRGCGTKFLSYKFSNSGSRITCAKQDSCRSQLCECDKAAATCFARNKTTYNKKYQYYSNKHCRGSTPRC
notes: this was not applied; also called human sPLA2-IIA; sPLA2
[3]
  binding result: no binding (tested: 5-1000 ng/mL hGIIA)
